Row | Structure (SMILES) | melting point
1 | O=C1NC2(CCN(C(=O)Nc3cnc(-c4ccccc4)cn3)CC2)c2ccccc21 [Example 2, 3-oxo-N-(5-phenyl-2-pyrazinyl)spiro[isoindoline-1,4′-piperidine]-1′-carboxamide] | 286 to 287 °C
2 | Cc1ccc2ccc(NC(=O)N3CCC4(CC3)NC(=O)c3ccccc34)nc2c1 [Example 3, N-(7-methyl-2-quinolyl)-3-oxospiro[isoindoline-1,4′-piperidine]-1′-carboxamide] | 194 to 196 °C
3 | O=C1Cc2ccccc2C2(CCN(C(=O)Nc3cnc(-c4ccccc4)cn3)CC2)N1 [Example 6, 3,4-Dihydro-3-oxo-N-(5-phenyl-2-pyrazinyl)spiro[isoquinoline-1(2H),4′-piperidine]-1′-carboxamide] | 237 to 239 °C
4 | Cc1ccc2ccc(NC(=O)N3CCC4(CC3)NC(=O)Cc3ccccc34)nc2c1 [Example 7, 3,4-Dihydro-N-(7-methyl-2-quinolyl)-3-oxospiro[isoquinoline-1(2H),4′-piperidine]-1′-carboxamide] | 216 to 218 °C
5 | CC(=O)c1ccc(NC(=O)N2CCC3(CC2)NC(=O)Cc2ccccc23)cc1 [Example 8, N-(4-acetylphenyl)-3,4-dihydro-3-oxospiro[isoquinoline-1(2H),4′-piperidine]-1′-carboxamide] | > 300 °C
6 | O=C1Cc2ccccc2C2(CCN(C(=O)Nc3ccc4c(c3)CCCC4=O)CC2)N1 [Example 10, 3,4-Dihydro-3-oxo-N-(5-oxo-5,6,7,8-tetrahydro-2-naphthyl)spiro[isoquinoline-1(2H),4′-piperidine]-1′-carboxamide] | 220.5 to 222.2 °C
7 | CC(C)=Cc1cnc(NC(=O)N2CCC3(CC2)NC(=O)Cc2ccccc23)cn1 [Example 11, 3,4-Dihydro-N-[5-(2-methyl-1-propenyl)-2-pyrazinyl]-3-oxospiro[isoquinoline-1(2H),4′-piperidine]-1′-carboxamide] | 232.9 to 236.5 °C
8 | O=C1Cc2ccccc2C2(CCN(C(=O)Nc3cc(-c4ccccc4)no3)CC2)N1 [Example 12, 3,4-Dihydro-3-oxo-N-(3-phenyl-5-isoxazolyl)spiro[isoquinoline-1(2H),4′-piperidine]-1′-carboxamide] | 239 to 241 °C
9 | O=C1Cc2ccccc2C2(CCN(C(=O)Nc3cn(-c4cccc5ccoc45)cn3)CC2)N1 [Example 13, N-[1-(7-benzo[b]furanyl)-4-imidazolyl]-3,4-dihydro-3-oxospiro[isoquinoline-1(2H),4′-piperidine]-1′-carboxamide] | 192 to 194 °C
10 | O=C1Cc2ccccc2C2(CCN(C(=O)Nc3cn(-c4cccc(OC(F)F)c4)cn3)CC2)N1 [Example 14, N-[1-(3-difluoromethoxyphenyl)-4-imidazolyl]-3,4-dihydro-3-oxospiro[isoquinoline-1(2H),4′-piperidine]-1′-carboxamide] | 161 to 163 °C
11 | O=C1Cc2ccccc2C2(CCN(C(=O)Nc3ccc(C(=O)c4ccccn4)cc3)CC2)N1 [Example 15, 3,4-Dihydro-3-oxo-N-[4-(2-pyridylcarbonyl)phenyl]spiro[isoquinoline-1(2H),4′-piperidine]-1′-carboxamide] | 162 to 164 °C
12 | O=C1Cc2ccccc2C2(CCN(C(=O)Nc3ccc(Cl)c(Cl)c3)CC2)N1 [Example 16, N-(3,4-dichlorophenyl)-3,4-dihydro-3-oxospiro[isoquinoline-1(2H),4′-piperidine]-1′-carboxamide] | > 300 °C
13 | O=C1Cc2ccccc2C2(CCN(C(=O)Nc3cn(-c4cccc(Cl)c4)cn3)CC2)N1 [Example 17, N-[1-(3-chlorophenyl)-4-imidazolyl]-3,4-dihydro-3-oxospiro[isoquinoline-1(2H),4′-piperidine]-1′-carboxamide] | 255 to 258 °C
14 | O=C1Cc2ccccc2C2(CCN(C(=O)Nc3ncc(-c4ccccc4)s3)CC2)N1 [Example 18, 3,4-Dihydro-3-oxo-N-(5-phenyl-2-thiazolyl)spiro[isoquinoline-1(2H),4′-piperidine]-1′-carboxamide] | > 300 °C
15 | O=C1Cc2ccccc2C2(CCN(C(=O)Nc3cnc(-c4ccccn4)cn3)CC2)N1 [Example 19, 3,4-Dihydro-3-oxo-N-[5-(2-pyridyl)-2-pyrazinyl]spiro[isoquinoline-1(2H),4′-piperidine]-1′-carboxamide] | 223 to 225 °C
16 | Cc1cccc2sc(NC(=O)N3CCC4(CC3)NC(=O)Cc3ccccc34)nc12 [Example 20, 3,4-Dihydro-N-(4-methyl-2-benzothiazolyl)-3-oxospiro[isoquinoline-1(2H),4′-piperidine]-1′-carboxamide] | 144 to 146 °C
17 | O=C1Cc2ccccc2C2(CCN(C(=O)Nc3nc4cc(Cl)ccc4o3)CC2)N1 [Example 21, N-(5-chloro-2-benzoxazolyl)-3,4-dihydro-3-oxospiro[isoquinoline-1(2H),4′-piperidine]-1′-carboxamide] | 256 to 258 °C
18 | Cc1ccc2ccc(NC(=O)N3CCC4(CC3)OC(=O)c3ccccc34)nc2c1 [Example 24, N-(7-methyl-2-quinolyl)-3-oxospiro[isobenzofuran-1(3H),4′-piperidine]-1′-carboxamide] | 178 to 180 °C
19 | O=C1OC2(CCN(C(=O)Nc3cn(-c4cnc5ccccc5c4)cn3)CC2)c2ccccc21 [Example 28, 3-Oxo-N-[1-(3-quinolyl)-4-imidazolyl]spiro[isobenzofuran-1(3H),4′-piperidine]-1′-carboxamide] | 251 to 254 °C
20 | O=C1OC2(CCN(C(=O)Nc3cc(-c4ccc(Cl)cc4)[nH]n3)CC2)c2ccccc21 [Example 30, N-[5-(4-chlorophenyl)-3-pyrazolyl]-3-oxospiro[isobenzofuran-1(3H),4′-piperidine]-1′-carboxamide] | 255 to 258 °C
21 | O=C1OC2(CCN(C(=O)Nc3cc(-c4cnc5ccccc5c4)[nH]n3)CC2)c2ccccc21 [Example 31, 3-oxo-N-[5-(3-quinolyl)-3-pyrazolyl]spiro[isobenzofuran-1(3H),4′-piperidine]-1′-carboxamide] | 253 to 257 °C
22 | O=C1OC2(CCN(C(=O)Nc3ccc4ncc(OC(F)F)cc4n3)CC2)c2ccccc21 [Example 35, N-(7-difluoromethoxypyrido[3,2-b]pyridin-2-yl)-3-oxospiro[isobenzofuran-1(3H),4′-piperidine]-1′-carboxamide] | 193 °C
23 | O=C1OC2(CCN(C(=O)Nc3cn(-c4cccc(CCO)c4)cn3)CC2)c2ccccc21 [Example 37, N-{1-[3-(2-hydroxyethyl)phenyl]-4-imidazolyl}-3-oxospiro[isobenzofuran-1(3H),4′-piperidine]-1′-carboxamide] | 99 to 100 °C
24 | CCn1ccnc1-c1ccc(NC(=O)N2CCC3(CC2)OC(=O)c2ccccc23)cc1 [Example 38, N-[4-(1-ethyl-2-imidazolyl)phenyl]-3-oxospiro[isobenzofuran-1(3H),4′-piperidine]-1′-carboxamide] | 221 to 223 °C
25 | COc1cccc(-n2cnc(NC(=O)N3CCC4(CC3)OC(=O)c3ccccc34)c2)c1 [Example 39, N-[1-(3-methoxyphenyl)-4-imidazolyl]-3-oxospiro[isobenzofuran-1(3H),4′-piperidine]-1′-carboxamide] | 208 to 210 °C

— US6803372B2, “Spiro compounds” (Banyu Pharmaceutical Co., Ltd., priority 1999, dated 2004)
